The record followed here is patent publication US9365522B2, “Pyrazole amide derivative” (AMGEN INC., priority 2015, dated 2016).

The structures appear in SMILES notation.

For the test, the target named is T1, human RORγ-LBD (Homo sapiens, UniProt P51449).
T1 construct: made in house; host or cells: E. coli (BL-21)
T1 sequence (P51449 262-518): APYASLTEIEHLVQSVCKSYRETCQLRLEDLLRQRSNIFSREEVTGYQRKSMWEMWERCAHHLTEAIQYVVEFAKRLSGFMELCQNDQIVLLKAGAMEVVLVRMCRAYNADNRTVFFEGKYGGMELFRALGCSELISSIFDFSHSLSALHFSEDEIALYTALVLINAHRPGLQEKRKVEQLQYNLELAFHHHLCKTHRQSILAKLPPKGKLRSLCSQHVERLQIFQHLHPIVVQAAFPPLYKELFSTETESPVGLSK
Description: ROR gamma coactivator peptide recruitment Alphascreen assay (RORγ-LBD binding to GRIP1 coactivator peptide). Type of test: biochemical. The conditions noted are these: 5 nM human RORγ-LBD, 30 nM 7-β-hydroxycholesterol, 50 nM biotinylated GRIP1 coactivator peptide, overnight incubation at room temperature; read-out: result (pIC50, RORγ coactivator peptide recruitment Alphascreen assay) (converted). A digest of the protocol: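 Alphascreen proximity read-out after overnight room-temperature incubation, yielding pIC50 from 1-in-2 compound series (2.5% DMSO final). Mixture: 50 nM biotin-GRIP1 peptide, 30 nM 7-β-hydroxycholesterol agonist, 5 nM recombinant 6×His:Flag human RORγ-LBD (aa 262-518), 50 mM HEPES pH 7.4.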
Background: Bead proximity is the source of the signal in Alpha formats.
For the compound `C[C@]1(C(=O)O)CC[C@H](n2ncc(C(=O)N(CC(=O)c3c(Cl)cccc3Cl)CC3(F)CC4(CC4)C3)c2C(F)(F)F)CC1` [Example 713, (1r,4r)-4-(4-((2-(2,6-dichlorophenyl)-2-oxoethyl)((5-fluorospiro[2.3]hexan-5-yl)methyl)carbamoyl)-5-(trifluoromethyl)-1H-pyrazol-1-yl)-1-methylcyclohexanecarboxylic acid], the IC50 was 4.07 nM. With `Cc1cc(Cl)c(C(=O)CN(C(=O)c2cnn([C@H]3CC[C@](C)(C(=O)O)CC3)c2C(F)(F)F)[C@H]2C[C@@H]3[C@H](C2)C3(C)C)c(Cl)n1` [Example 714, trans-4-(4-((2-(2,4-dichloro-6-methyl-3-pyridinyl)-2-oxoethyl)((1R,3r,5S)-6,6-dimethylbicyclo[3.1.0]hex-3-yl)carbamoyl)-5-(trifluoromethyl)-1H-pyrazol-1-yl)-1-methylcyclohexanecarboxylic acid] the figure was 3.55 nM; with `Cc1ncc(Cl)c(C(=O)CN(CC(C)(C)C)C(=O)c2cnn([C@H]3CC[C@](C)(C(=O)O)CC3)c2C(F)(F)F)c1Cl` [Example 715, trans-4-(4-((2-(3,5-dichloro-2-methyl-4-pyridinyl)-2-oxoethyl)(2,2-dimethylpropyl)carbamoyl)-5-(trifluoromethyl)-1H-pyrazol-1-yl)-1-methylcyclohexanecarboxylic acid], 10.5 nM. Regarding `CC1(CN(CC(=O)c2c(Cl)cc(F)cc2Cl)C(=O)c2cnn([C@H]3CC[C@@](C)(C(=O)O)CC3)c2C(F)(F)F)CC1` [Example 716, trans-4-(4-((2-(2,6-dichloro-4-fluorophenyl)-2-oxoethyl)((1-methylcyclopropyl)methyl)carbamoyl)-5-(trifluoromethyl)-1H-pyrazol-1-yl)-1-methylcyclohexanecarboxylic acid], the IC50 was 2.69 nM. For `Cc1cc(Cl)c(C(=O)CN(CC2(C)CC2)C(=O)c2cnn([C@H]3CC[C@@](C)(C(=O)O)CC3)c2C(F)(F)F)c(Cl)c1` [Example 717], the IC50 was 2.09 nM. With `Cc1cc(Cl)c(C(=O)CN(CC2CCCC2)C(=O)c2cnn([C@H]3CC[C@@](C)(C(=O)O)CC3)c2C(F)(F)F)c(Cl)c1` [Example 718, trans-4-(4-((cyclopentylmethyl)(2-(2,6-dichloro-4-methylphenyl)-2-oxoethyl)carbamoyl)-5-(trifluoromethyl)-1H-pyrazol-1-yl)-1-methylcyclohexanecarboxylic acid], the IC50 is 1.74 nM. Consider `CC(C)(C)CN(CC(=O)c1c(Cl)cncc1Cl)C(=O)c1cnn([C@H]2CC[C@H](CC(=O)O)CC2)c1C(F)(F)F` [Example 719, (trans-4-(4-((2-(3,5-dichloro-4-pyridinyl)-2-oxoethyl)(2,2-dimethylpropyl)carbamoyl)-5-(trifluoromethyl)-1H-pyrazol-1-yl)cyclohexyl)acetic acid], for which the IC50 is 6.03 nM. On to `CC(C)(C)CN(CC(=O)c1c(Cl)cncc1Cl)C(=O)c1cnn([C@H]2CC[C@@H](CC(=O)O)CC2)c1C(F)(F)F` [Example 720, (cis-4-(4-((2-(3,5-dichloro-4-pyridinyl)-2-oxoethyl)(2,2-dimethylpropyl)carbamoyl)-5-(trifluoromethyl)-1H-pyrazol-1-yl)cyclohexyl)acetic acid], for which the IC50 is 74.1 nM. Turning to `Cc1cc(Cl)c(C(=O)CN(C(=O)c2cnn([C@H]3CC[C@](C)(C(=O)O)CC3)c2C(F)(F)F)[C@H]2CCC23CCC3)c(Cl)c1` [Example 721, trans-4-(4-((2-(2,6-dichloro-4-methylphenyl)-2-oxoethyl)((1S)-spiro[3.3]hept-1-yl)carbamoyl)-5-(trifluoromethyl)-1H-pyrazol-1-yl)-1-methylcyclohexanecarboxylic acid], the IC50 was 0.832 nM. On to `Cc1cc(Cl)c(C(=O)CN(C(=O)c2cnn([C@H]3CC[C@](C)(C(=O)O)CC3)c2C(F)(F)F)[C@@H]2CCC23CCC3)c(Cl)c1` [Example 722, trans-4-(4-((2-(2,6-dichloro-4-methylphenyl)-2-oxoethyl)((1R)-spiro[3.3]hept-1-yl)carbamoyl)-5-(trifluoromethyl)-1H-pyrazol-1-yl)-1-methylcyclohexanecarboxylic acid], for which the IC50 was 9.55 nM. In the case of `Cc1cc(Cl)c(C(=O)CN(C[C@@H]2CC(C)(C)O2)C(=O)c2cnn([C@H]3CC[C@](C)(C(=O)O)CC3)c2C(F)(F)F)c(Cl)c1` [Example 723, trans-4-(4-((2-(2,6-dichloro-4-methylphenyl)-2-oxoethyl)(((2S)-4,4-dimethyl-2-oxetanyl)methyl)carbamoyl)-5-(trifluoromethyl)-1H-pyrazol-1-yl)-1-methylcyclohexanecarboxylic acid], the IC50 was 10 nM. Turning to `Cc1cc(Cl)c(C(=O)CN(C[C@H]2CC(C)(C)O2)C(=O)c2cnn([C@H]3CC[C@](C)(C(=O)O)CC3)c2C(F)(F)F)c(Cl)c1` [Example 724, trans-4-(4-((2-(2,6-dichloro-4-methylphenyl)-2-oxoethyl)(((2R)-4,4-dimethyl-2-oxetanyl)methyl)carbamoyl)-5-(trifluoromethyl)-1H-pyrazol-1-yl)-1-methylcyclohexanecarboxylic acid], the IC50 was 6.03 nM. With `Cc1cc(Cl)c(C(=O)CN(C[C@@]2(C)CCCO2)C(=O)c2cnn([C@H]3CC[C@](C)(C(=O)O)CC3)c2C(F)(F)F)c(Cl)c1` [Example 725, trans-4-(4-((2-(2,6-dichloro-4-methylphenyl)-2-oxoethyl)(((2S)-2-methyltetrahydro-2-furanyl)methyl)carbamoyl)-5-(trifluoromethyl)-1H-pyrazol-1-yl)-1-methylcyclohexanecarboxylic acid] the figure was 4.47 nM; with `Cc1cc(Cl)c(C(=O)CN(C[C@@]2(C)CCCO2)C(=O)c2cnn([C@H]3CC[C@](C)(C(=O)O)CC3)c2C(F)(F)F)c(Cl)c1` [Example 726, trans-4-(4-((2-(2,6-dichloro-4-methylphenyl)-2-oxoethyl)(((2R)-2-methyltetrahydro-2-furanyl)methyl)carbamoyl)-5-(trifluoromethyl)-1H-pyrazol-1-yl)-1-methylcyclohexanecarboxylic acid], 2.75 nM. For the compound `C[C@@]1(CN(CC(=O)c2c(Cl)cccc2Cl)C(=O)c2cnn([C@H]3CC[C@](C)(C(=O)O)CC3)c2C(F)(F)F)CCCO1` [Example 727, trans-4-(4-((2-(2,6-dichlorophenyl)-2-oxoethyl)(((2S)-2-methyltetrahydro-2-furanyl)methyl)carbamoyl)-5-(trifluoromethyl)-1H-pyrazol-1-yl)-1-methylcyclohexanecarboxylic acid], the IC50 is 11.7 nM. Take `C[C@]1(CN(CC(=O)c2c(Cl)cccc2Cl)C(=O)c2cnn([C@H]3CC[C@](C)(C(=O)O)CC3)c2C(F)(F)F)CCCO1` [Example 728, trans-4-(4-((2-(2,6-dichlorophenyl)-2-oxoethyl)(((2R)-2-methyltetrahydro-2-furanyl)methyl)carbamoyl)-5-(trifluoromethyl)-1H-pyrazol-1-yl)-1-methylcyclohexanecarboxylic acid]: the IC50 was 4.79 nM. In the case of `C[C@]1(C(=O)O)CC[C@H](n2ncc(C(=O)N(CC(=O)c3c(Cl)cccc3Cl)CC3(C(F)(F)F)CC3)c2C(F)(F)F)CC1` [Example 729, (1r,4r)-4-(4-((2-(2,6-dichlorophenyl)-2-oxoethyl)((1-(trifluoromethyl)cyclopropyl)methyl)carbamoyl)-5-(trifluoromethyl)-1H-pyrazol-1-yl)-1-methylcyclohexanecarboxylic acid], the IC50 was 2.4 nM. To `CC1(CN(CC(=O)c2c(Cl)cncc2Cl)C(=O)c2cnn([C@H]3CC[C@](C)(C(=O)O)CC3)c2C(F)(F)F)CCC1` [Example 730, trans-4-(4-((2-(3,5-dichloro-4-pyridinyl)-2-oxoethyl)((1-methylcyclobutyl)methyl)carbamoyl)-5-(trifluoromethyl)-1H-pyrazol-1-yl)-1-methylcyclohexanecarboxylic acid] belongs 3.55 nM; to `Cc1cc(Cl)c(C(=O)CN(CC2(C)CCC2)C(=O)c2cnn([C@H]3CC[C@](C)(C(=O)O)CC3)c2C(F)(F)F)c(Cl)c1` [Example 731, trans-4-(4-((2-(2,6-dichloro-4-methylphenyl)-2-oxoethyl)((1-methylcyclobutyl)methyl)carbamoyl)-5-(trifluoromethyl)-1H-pyrazol-1-yl)-1-methylcyclohexanecarboxylic acid], 0.933 nM.

Take `Cc1cc(Cl)c(C(=O)CN(C(=O)c2cnn([C@H]3CC[C@](C)(C(=O)O)CC3)c2C(F)(F)F)C2CCC(C)(C)CC2)c(Cl)n1` [Example 732, trans-4-(4-((2-(2,4-dichloro-6-methyl-3-pyridinyl)-2-oxoethyl)(4,4-dimethylcyclohexyl)carbamoyl)-5-(trifluoromethyl)-1H-pyrazol-1-yl)-1-methylcyclohexanecarboxylic acid]: the IC50 was 9.12 nM. With `Cc1cc(Cl)c(C(=O)CN(CC2CCC2)C(=O)c2cnn([C@H]3CC[C@](C)(C(=O)O)CC3)c2C(F)(F)F)c(Cl)c1` [Example 733, trans-4-(4-((cyclobutylmethyl)(2-(2,6-dichloro-4-methylphenyl)-2-oxoethyl)carbamoyl)-5-(trifluoromethyl)-1H-pyrazol-1-yl)-1-methylcyclohexanecarboxylic acid] the figure was 2.51 nM.
